Test results taken from ChEMBL document CHEMBL4507320, “Data for DCP probe NVS-MALT1” (2021).

Legend:
[1] = molecular target: Serine/threonine-protein kinase Chk2 (Homo sapiens) (UniProt O96017); details: Compound concentration 1000.0 nM
[2] = molecular target: Phosphatidylinositol 4-phosphate 5-kinase type-1 gamma (Homo sapiens) (UniProt O60331); details: Compound concentration 1000.0 nM
[3] = molecular target: Serine/threonine-protein kinase Sgk3 (Homo sapiens) (UniProt Q96BR1); details: Compound concentration 1000.0 nM
[4] = molecular target: Dual specificity mitogen-activated protein kinase kinase 2 (Homo sapiens) (UniProt P36507); details: Compound concentration 1000.0 nM
[5] = molecular target: 5-hydroxytryptamine receptor 3A (Homo sapiens) (UniProt P46098); details: Compound concentration 10.0 uM
[6] = molecular target: Dual specificity protein kinase TTK (Homo sapiens) (UniProt P33981); details: Compound concentration 1000.0 nM
[7] = molecular target: Serine/threonine-protein kinase TAO3 (Homo sapiens) (UniProt Q9H2K8); details: Compound concentration 1000.0 nM
[8] = molecular target: Bone morphogenetic protein receptor type-2 (Homo sapiens) (UniProt Q13873); details: Compound concentration 1000.0 nM
[9] = molecular target: Macrophage colony-stimulating factor 1 receptor (Homo sapiens) (UniProt P07333); details: Compound concentration 1000.0 nM
[10] = molecular target: Tyrosine-protein kinase receptor UFO (Homo sapiens) (UniProt P30530); details: Compound concentration 1000.0 nM
[11] = molecular target: Mitogen-activated protein kinase 11 (Homo sapiens) (UniProt Q15759); details: Compound concentration 1000.0 nM
[12] = molecular target: Ribosomal protein S6 kinase alpha-4 (Homo sapiens) (UniProt O75676); details: Compound concentration 1000.0 nM
[13] = molecular target: Ephrin type-B receptor 3 (Homo sapiens) (UniProt P54753); details: Compound concentration 1000.0 nM
[14] = molecular target: Serine/threonine-protein kinase DCLK2 (Homo sapiens) (UniProt Q8N568); details: Compound concentration 1000.0 nM
[15] = molecular target: Cyclin-dependent kinase-like 5 (Homo sapiens) (UniProt O76039); details: Compound concentration 1000.0 nM
[16] = molecular target: 5-hydroxytryptamine receptor 1B (Homo sapiens) (UniProt P28222); details: Compound concentration 10.0 uM
[17] = molecular target: Cyclin-dependent kinase 16 (Homo sapiens) (UniProt Q00536); details: Compound concentration 1000.0 nM
[18] = molecular target: Tyrosine-protein kinase ABL1 (Homo sapiens) (UniProt P00519); details: Compound concentration 1000.0 nM
[19] = molecular target: Sigma intracellular receptor 2 (Homo sapiens, UniProt Q5BJF2); details: Compound concentration 10.0 uM
[20] = molecular target: Serine/threonine-protein kinase SBK1 (Homo sapiens) (UniProt Q52WX2); details: Compound concentration 1000.0 nM
[21] = molecular target: Serine/threonine-protein kinase 17B (Homo sapiens) (UniProt O94768); details: Compound concentration 1000.0 nM
[22] = molecular target: Serine/threonine-protein kinase PLK3 (Homo sapiens) (UniProt Q9H4B4); details: Compound concentration 1000.0 nM
[23] = molecular target: Fibroblast growth factor receptor 1 (Homo sapiens) (UniProt P11362); details: Compound concentration 1000.0 nM
[24] = test system: Epidermal growth factor receptor (Homo sapiens), P00533 [UNDEFINED MUTATION]; details: Compound concentration 1000.0 nM
[25] = test system: Proto-oncogene tyrosine-protein kinase receptor Ret (Homo sapiens), P07949 [M918T]; details: Compound concentration 1000.0 nM
[26] = molecular target: ALK tyrosine kinase receptor (Homo sapiens) (UniProt Q9UM73); details: Compound concentration 1000.0 nM
[27] = molecular target: Muscarinic acetylcholine receptor M4 (Homo sapiens) (UniProt P08173); details: Compound concentration 10.0 uM
[28] = molecular target: Cyclin-dependent kinase-like 2 (Homo sapiens) (UniProt Q92772); details: Compound concentration 1000.0 nM
[29] = molecular target: Non-receptor tyrosine-protein kinase TYK2 (Homo sapiens) (UniProt P29597); details: Compound concentration 1000.0 nM
[30] = molecular target: Ribosomal protein S6 kinase alpha-1 (Homo sapiens) (UniProt Q15418); details: Compound concentration 1000.0 nM
[31] = molecular target: Ribosomal protein S6 kinase alpha-5 (Homo sapiens) (UniProt O75582); details: Compound concentration 1000.0 nM
[32] = molecular target: Testis-specific serine/threonine-protein kinase 1 (Homo sapiens) (UniProt Q9BXA7); details: Compound concentration 1000.0 nM
[33] = molecular target: GABA-A receptor; anion channel (Rattus norvegicus) (UniProt O09028+P15431+P18506+P18508+P19969+P20236+P23574+P23576+P28471+P28473+P30191+P62813+P63079+P63138+Q91ZM7+Q9ES14); details: Compound concentration 10.0 uM
[34] = molecular target: Receptor tyrosine-protein kinase erbB-2 (Homo sapiens) (UniProt P04626); details: Compound concentration 1000.0 nM
[35] = molecular target: Glycogen synthase kinase-3 beta (Homo sapiens) (UniProt P49841); details: Compound concentration 1000.0 nM
[36] = molecular target: Serine/threonine-protein kinase 32C (Homo sapiens) (UniProt Q86UX6); details: Compound concentration 1000.0 nM
[37] = test system: Tyrosine-protein kinase ABL1 (Homo sapiens), P00519 [H396P]; details: Compound concentration 1000.0 nM
[38] = molecular target: RAC-alpha serine/threonine-protein kinase (Homo sapiens) (UniProt P31749); details: Compound concentration 1000.0 nM
[39] = molecular target: Serine/threonine-protein kinase Nek5 (Homo sapiens) (UniProt Q6P3R8); details: Compound concentration 1000.0 nM
[40] = molecular target: Ephrin type-B receptor 2 (Homo sapiens) (UniProt P29323); details: Compound concentration 1000.0 nM
[41] = molecular target: Tyrosine-protein kinase JAK1 (Homo sapiens) (UniProt P23458); details: Compound concentration 1000.0 nM
[42] = molecular target: Tyrosine-protein kinase ITK/TSK (Homo sapiens) (UniProt Q08881); details: Compound concentration 1000.0 nM
[43] = molecular target: Platelet-derived growth factor receptor alpha (Homo sapiens) (UniProt P16234); details: Compound concentration 1000.0 nM
[44] = molecular target: Ankyrin repeat and protein kinase domain-containing protein 1 (Homo sapiens) (UniProt Q8NFD2); details: Compound concentration 1000.0 nM

Ribosomal protein S6 kinase alpha-5 (Homo sapiens), sequence (O75582 whole entry, looked up): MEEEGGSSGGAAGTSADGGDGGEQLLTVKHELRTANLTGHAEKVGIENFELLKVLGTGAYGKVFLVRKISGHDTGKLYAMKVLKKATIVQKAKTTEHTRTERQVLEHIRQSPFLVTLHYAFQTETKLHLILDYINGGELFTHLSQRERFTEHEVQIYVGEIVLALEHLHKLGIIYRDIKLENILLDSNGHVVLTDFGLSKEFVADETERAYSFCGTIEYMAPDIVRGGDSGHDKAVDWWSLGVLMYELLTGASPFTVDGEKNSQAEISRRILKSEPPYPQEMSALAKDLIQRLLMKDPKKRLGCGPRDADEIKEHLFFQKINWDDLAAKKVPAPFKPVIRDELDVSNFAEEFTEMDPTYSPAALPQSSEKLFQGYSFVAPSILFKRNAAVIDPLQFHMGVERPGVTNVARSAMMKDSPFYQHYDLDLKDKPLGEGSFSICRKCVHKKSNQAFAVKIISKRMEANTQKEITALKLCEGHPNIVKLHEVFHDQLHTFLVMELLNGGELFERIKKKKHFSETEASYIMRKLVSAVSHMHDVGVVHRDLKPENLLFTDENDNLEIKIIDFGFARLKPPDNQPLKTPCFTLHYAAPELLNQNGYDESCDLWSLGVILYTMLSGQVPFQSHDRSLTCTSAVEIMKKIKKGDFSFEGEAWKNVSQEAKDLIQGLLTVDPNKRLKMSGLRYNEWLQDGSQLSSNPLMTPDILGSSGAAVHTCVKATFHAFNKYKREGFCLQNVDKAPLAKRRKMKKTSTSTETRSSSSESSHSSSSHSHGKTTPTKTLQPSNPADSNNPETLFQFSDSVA
Serine/threonine-protein kinase Sgk3 (Homo sapiens), sequence (Q96BR1 whole entry): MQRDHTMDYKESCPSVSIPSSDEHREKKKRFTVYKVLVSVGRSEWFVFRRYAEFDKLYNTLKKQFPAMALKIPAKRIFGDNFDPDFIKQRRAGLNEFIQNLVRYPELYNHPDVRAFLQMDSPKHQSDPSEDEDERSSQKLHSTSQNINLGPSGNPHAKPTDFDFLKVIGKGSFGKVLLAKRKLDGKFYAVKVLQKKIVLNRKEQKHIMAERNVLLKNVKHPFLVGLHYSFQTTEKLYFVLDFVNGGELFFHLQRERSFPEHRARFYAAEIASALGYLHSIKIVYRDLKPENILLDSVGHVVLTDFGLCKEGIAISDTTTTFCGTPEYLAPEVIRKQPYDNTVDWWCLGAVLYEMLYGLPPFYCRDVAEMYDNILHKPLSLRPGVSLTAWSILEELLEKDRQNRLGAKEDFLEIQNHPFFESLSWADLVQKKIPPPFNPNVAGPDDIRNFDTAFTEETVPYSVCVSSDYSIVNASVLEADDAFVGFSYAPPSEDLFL
Tyrosine-protein kinase receptor UFO (Homo sapiens), sequence (P30530 whole entry): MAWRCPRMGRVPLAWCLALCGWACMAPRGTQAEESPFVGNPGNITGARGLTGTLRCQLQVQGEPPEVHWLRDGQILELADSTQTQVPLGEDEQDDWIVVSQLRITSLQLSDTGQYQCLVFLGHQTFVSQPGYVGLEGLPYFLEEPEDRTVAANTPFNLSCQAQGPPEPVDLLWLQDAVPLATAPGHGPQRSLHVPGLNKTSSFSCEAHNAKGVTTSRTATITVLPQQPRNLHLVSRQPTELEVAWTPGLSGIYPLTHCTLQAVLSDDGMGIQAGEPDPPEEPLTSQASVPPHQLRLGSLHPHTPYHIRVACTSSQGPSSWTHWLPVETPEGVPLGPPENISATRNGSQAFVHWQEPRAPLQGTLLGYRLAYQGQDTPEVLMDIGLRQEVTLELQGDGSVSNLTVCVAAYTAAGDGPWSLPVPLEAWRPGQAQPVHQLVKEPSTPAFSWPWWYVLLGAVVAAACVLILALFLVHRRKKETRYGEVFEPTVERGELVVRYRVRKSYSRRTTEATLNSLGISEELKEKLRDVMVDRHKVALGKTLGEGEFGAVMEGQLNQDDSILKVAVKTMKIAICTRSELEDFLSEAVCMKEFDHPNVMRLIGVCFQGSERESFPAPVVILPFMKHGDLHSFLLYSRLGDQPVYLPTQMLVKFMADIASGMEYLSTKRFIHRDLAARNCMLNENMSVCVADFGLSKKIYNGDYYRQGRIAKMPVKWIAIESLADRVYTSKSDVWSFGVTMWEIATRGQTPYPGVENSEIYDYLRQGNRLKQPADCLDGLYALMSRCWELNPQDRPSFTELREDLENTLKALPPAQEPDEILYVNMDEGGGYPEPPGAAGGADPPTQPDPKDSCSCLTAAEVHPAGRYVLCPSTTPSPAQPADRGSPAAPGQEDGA
Receptor tyrosine-protein kinase erbB-2 (Homo sapiens), sequence (P04626 whole entry): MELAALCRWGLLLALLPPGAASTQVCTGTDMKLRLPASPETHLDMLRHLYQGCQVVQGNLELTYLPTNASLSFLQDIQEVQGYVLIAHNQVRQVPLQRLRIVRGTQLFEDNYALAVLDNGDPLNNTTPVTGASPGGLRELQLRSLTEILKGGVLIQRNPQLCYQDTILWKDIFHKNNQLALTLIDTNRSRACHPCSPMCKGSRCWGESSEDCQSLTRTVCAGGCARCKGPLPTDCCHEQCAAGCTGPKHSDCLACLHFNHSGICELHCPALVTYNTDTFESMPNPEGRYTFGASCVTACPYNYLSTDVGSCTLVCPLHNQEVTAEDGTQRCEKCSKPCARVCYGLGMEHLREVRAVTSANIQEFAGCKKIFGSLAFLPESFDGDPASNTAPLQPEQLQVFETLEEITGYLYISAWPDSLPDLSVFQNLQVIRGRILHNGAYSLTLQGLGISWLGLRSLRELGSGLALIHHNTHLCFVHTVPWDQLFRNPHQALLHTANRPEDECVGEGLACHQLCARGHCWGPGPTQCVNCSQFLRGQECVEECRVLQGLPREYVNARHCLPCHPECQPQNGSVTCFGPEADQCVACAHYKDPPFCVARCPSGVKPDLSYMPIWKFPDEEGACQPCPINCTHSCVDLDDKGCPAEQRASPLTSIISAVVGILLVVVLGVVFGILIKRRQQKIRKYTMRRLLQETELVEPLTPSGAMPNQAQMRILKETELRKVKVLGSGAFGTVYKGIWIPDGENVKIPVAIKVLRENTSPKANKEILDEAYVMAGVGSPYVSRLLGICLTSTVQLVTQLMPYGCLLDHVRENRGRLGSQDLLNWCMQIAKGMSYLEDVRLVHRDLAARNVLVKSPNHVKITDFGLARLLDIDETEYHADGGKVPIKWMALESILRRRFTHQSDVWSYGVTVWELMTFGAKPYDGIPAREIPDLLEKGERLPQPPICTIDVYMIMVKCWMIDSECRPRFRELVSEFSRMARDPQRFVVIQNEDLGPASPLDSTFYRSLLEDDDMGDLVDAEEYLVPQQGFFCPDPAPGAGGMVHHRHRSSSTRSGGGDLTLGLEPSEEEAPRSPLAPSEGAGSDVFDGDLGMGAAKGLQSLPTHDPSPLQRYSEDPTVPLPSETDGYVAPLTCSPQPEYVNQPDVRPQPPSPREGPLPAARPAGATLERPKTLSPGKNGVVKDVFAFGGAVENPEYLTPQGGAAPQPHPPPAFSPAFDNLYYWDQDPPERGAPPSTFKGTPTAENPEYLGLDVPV
Phosphatidylinositol 4-phosphate 5-kinase type-1 gamma (Homo sapiens), sequence (O60331 whole entry): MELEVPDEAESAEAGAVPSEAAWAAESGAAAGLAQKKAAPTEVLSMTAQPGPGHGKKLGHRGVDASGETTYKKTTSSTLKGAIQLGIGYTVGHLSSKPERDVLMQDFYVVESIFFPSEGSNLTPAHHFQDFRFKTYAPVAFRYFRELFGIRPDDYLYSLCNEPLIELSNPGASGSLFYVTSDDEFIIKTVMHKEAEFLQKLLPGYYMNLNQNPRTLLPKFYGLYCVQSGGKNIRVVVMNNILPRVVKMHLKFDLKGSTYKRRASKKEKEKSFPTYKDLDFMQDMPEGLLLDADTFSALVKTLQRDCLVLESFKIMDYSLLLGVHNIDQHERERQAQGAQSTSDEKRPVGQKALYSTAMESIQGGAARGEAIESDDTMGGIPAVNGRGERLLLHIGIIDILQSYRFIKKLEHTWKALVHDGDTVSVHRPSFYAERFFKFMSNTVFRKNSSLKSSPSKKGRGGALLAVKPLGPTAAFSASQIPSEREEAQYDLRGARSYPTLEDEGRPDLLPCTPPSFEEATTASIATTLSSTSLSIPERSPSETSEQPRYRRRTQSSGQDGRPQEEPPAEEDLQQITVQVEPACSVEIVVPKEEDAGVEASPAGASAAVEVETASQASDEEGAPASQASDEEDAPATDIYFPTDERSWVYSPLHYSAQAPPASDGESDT
Sigma intracellular receptor 2, sequence (Q5BJF2 whole entry): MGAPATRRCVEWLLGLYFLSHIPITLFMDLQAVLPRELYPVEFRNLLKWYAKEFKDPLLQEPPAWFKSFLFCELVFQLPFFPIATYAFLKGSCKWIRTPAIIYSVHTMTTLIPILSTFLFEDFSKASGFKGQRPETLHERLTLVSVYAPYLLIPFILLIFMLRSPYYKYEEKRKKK
Ribosomal protein S6 kinase alpha-4 (Homo sapiens), sequence (O75676 whole entry, looked up): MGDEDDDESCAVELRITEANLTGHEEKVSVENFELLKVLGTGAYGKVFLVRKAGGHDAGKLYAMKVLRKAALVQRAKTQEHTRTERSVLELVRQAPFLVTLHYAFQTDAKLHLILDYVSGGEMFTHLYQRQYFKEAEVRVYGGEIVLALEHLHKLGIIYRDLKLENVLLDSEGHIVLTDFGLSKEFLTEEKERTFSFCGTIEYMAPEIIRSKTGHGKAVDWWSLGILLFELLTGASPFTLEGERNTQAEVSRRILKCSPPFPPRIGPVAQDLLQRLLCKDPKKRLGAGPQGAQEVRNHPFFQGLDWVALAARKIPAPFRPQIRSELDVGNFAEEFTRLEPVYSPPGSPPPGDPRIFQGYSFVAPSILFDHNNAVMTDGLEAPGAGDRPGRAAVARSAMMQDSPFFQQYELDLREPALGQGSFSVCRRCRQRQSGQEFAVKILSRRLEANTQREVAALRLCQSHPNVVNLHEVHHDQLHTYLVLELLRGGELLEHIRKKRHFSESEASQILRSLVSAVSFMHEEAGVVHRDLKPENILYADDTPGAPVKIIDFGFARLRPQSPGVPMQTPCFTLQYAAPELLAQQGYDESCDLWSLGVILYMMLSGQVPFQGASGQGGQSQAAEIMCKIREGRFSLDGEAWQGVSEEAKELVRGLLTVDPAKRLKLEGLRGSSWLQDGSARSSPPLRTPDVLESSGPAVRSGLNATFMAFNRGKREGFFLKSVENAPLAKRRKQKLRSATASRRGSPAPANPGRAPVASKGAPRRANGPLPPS

CO[C@@H](C)c1c(Nc2ccc([C@@H](N(C)C(=O)C3CCS(=O)(=O)CC3)C(F)(F)F)cc2)cnc2cc(Cl)nn12 [NVS-MALT1-C]
residual activity [1]: 100%
residual activity [2]: 100%
residual activity [3]: 100%
residual activity [4]: 97%
inhibition [5]: -1.2%
residual activity [6]: 100%
residual activity [7]: 100%
residual activity [8]: 84%
residual activity [9]: 72%
residual activity [10]: 77%
residual activity [11]: 86%
residual activity [12]: 100%
residual activity [13]: 100%
residual activity [14]: 95%
residual activity [15]: 89%
inhibition [16]: 11.4%
residual activity [17]: 72%
residual activity [18]: 74%
inhibition [19]: 57.1%
residual activity [20]: 100%
residual activity [21]: 98%
residual activity [22]: 84%
residual activity [23]: 91%
residual activity [24]: 100%
residual activity [25]: 85%
residual activity [26]: 100%
inhibition [27]: 21.1%
residual activity [28]: 88%
residual activity [29]: 98%
residual activity [30]: 65%
residual activity [31]: 82%
residual activity [32]: 100%
inhibition [33]: 19.2%
residual activity [34]: 70%
residual activity [35]: 100%
residual activity [36]: 82%
residual activity [37]: 98%
residual activity [38]: 89%
residual activity [39]: 88%
residual activity [40]: 92%
residual activity [41]: 89%
residual activity [42]: 94%
residual activity [43]: 100%
residual activity [44]: 100%

CO[C@@H](C)c1c(Nc2ccc([C@H](N(C)C(=O)C3CCS(=O)(=O)CC3)C(F)(F)F)cc2)cnc2cc(Cl)nn12 [NVS-MALT1]
residual activity [1]: 90%
residual activity [2]: 100%
residual activity [3]: 100%
residual activity [4]: 96%
inhibition [5]: -6.2%
residual activity [6]: 77%
residual activity [7]: 100%
residual activity [8]: 91%
residual activity [9]: 77%
residual activity [10]: 76%
residual activity [11]: 79%
residual activity [12]: 100%
residual activity [13]: 100%
residual activity [14]: 90%
residual activity [15]: 95%
inhibition [16]: 12.5%
residual activity [17]: 66%
residual activity [18]: 63%
inhibition [19]: 49.1%
residual activity [20]: 100%
residual activity [21]: 99%
residual activity [22]: 86%
residual activity [23]: 74%
residual activity [24]: 100%
residual activity [25]: 95%
residual activity [26]: 100%
inhibition [27]: 21.3%
residual activity [28]: 90%
residual activity [29]: 100%
residual activity [30]: 71%
residual activity [31]: 86%
residual activity [32]: 100%
inhibition [33]: 27.9%
residual activity [34]: 59%
residual activity [35]: 100%
residual activity [36]: 99%
residual activity [37]: 100%
residual activity [38]: 100%
residual activity [39]: 84%
residual activity [40]: 76%
residual activity [41]: 100%
residual activity [42]: 88%
residual activity [43]: 100%
residual activity [44]: 100%
